Measured values as given in patent US20250319047A1, “ANTIMICROBIAL TREATMENT AND PREVENTION BY PERILLYL ALCOHOL AND DERIVATIVES” (priority 2024, published 2025).

Columns and labels:
[1] = rats, prior systemic studies; cited from earlier work
[2] = in vivo
Source text: (§1) The antimicrobial effectiveness of POH diminishes in more dilute solutions. […] However, POH at concentrations equal to and higher than 4% will cause skin irritation and thus are not practical for clinical applications. Therefore, the highest concentration proposed is 3% to maintain a practical clinical range.

[3] = humans, dogs, and rats; cited from earlier work
[4] = system: all microorganisms; assay: Challenge of antimicrobial effectiveness of POH by concentration; assay type: cell-based
Source text: as §1

[5] = acids formed by oxidation of POH/PCO; cited from earlier work

## C=C(C)[C@@H]1CC=C(CO)CC1 [Perillyl alcohol, perillyl alcohol]
[1]
  metabolization, detection of parent compound: not detected
[2]
  concentration that will cause skin irritation: ≥ 4%
[3]
  metabolization: rapidly metabolized
[4]; 0.1% concentration
  antimicrobial effectiveness: reasonable against all microorganisms
[4]; over 90% concentrations
  antimicrobial effectiveness: eradicating the microorganisms completely

## C=C(C)[C@@H]1CC=C(C(=O)O)CC1 [Perillic]
[5]
  antimicrobial activity: lose the antimicrobial activity

## C=C(C)C1CCC(C(=O)O)CC1 (stereo not shown) [Dihydroperillic]
[5]
  antimicrobial activity: lose the antimicrobial activity
